Results from the Kinase Knowledgebase extract (Sharma et al. 2016).

target: PIK3CA (human) (UniProt P42336); assay: Assessment of PIK3CA Kinase Activity
Sequence (P42336 whole entry, looked up): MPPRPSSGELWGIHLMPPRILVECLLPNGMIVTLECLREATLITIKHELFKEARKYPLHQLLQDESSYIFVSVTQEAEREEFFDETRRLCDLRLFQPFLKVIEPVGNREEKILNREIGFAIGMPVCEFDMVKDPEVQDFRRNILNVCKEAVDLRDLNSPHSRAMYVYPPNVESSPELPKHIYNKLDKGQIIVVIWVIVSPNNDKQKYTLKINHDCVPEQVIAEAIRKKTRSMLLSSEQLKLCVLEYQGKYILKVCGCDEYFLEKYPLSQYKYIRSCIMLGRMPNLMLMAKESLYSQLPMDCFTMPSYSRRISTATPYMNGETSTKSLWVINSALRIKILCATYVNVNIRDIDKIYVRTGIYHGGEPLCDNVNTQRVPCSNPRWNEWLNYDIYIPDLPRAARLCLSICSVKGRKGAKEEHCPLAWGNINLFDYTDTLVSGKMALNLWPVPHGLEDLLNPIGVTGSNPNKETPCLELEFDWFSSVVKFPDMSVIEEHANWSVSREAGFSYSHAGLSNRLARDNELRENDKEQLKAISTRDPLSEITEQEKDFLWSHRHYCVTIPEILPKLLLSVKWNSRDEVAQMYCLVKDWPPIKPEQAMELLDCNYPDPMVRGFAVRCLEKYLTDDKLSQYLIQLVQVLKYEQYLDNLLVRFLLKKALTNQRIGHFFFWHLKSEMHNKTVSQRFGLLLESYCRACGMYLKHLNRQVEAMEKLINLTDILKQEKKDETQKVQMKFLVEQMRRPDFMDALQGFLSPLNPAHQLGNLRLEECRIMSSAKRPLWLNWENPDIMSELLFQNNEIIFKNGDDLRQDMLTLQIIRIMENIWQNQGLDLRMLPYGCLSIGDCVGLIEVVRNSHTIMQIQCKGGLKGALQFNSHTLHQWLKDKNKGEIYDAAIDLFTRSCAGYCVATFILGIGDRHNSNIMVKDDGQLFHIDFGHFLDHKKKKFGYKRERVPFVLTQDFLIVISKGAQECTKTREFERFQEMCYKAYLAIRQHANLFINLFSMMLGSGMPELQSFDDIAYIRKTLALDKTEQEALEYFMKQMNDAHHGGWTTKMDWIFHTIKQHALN

IC50 [µM] | Structure (SMILES)
< 1 | Cc1nc(-c2cn3c(n2)-c2ccc(CNC(N)=O)cc2OCC3)n(-c2ccc(F)cc2F)n1
< 1 | C[C@H](Oc1ccc2c(c1)OCCn1cc(-c3ncnn3CC(F)(F)F)nc1-2)C(N)=O
< 1 | CC(C)n1nc(N)nc1-c1cn2c(n1)-c1cc(-c3ccc(Cl)cc3)ccc1OCC2
< 1 | NC(=O)[C@@H]1COCCN1c1ccc2c(c1)OCCn1cc(-c3ncnn3CC(F)(F)F)nc1-2
< 1 | Fc1ccc(-n2ncnc2-c2cn3c(n2)-c2cnc(NCCCn4ccnc4)cc2OCC3)c(F)c1
< 1 | Cc1nc(-c2cn3c(n2)-c2ccc([C@@H]4CCNC[C@@H]4O)cc2OCC3)n(C(C)C)n1
< 1 | CC(C)n1ncnc1-c1cn2c(n1)-c1ccc(C3CCN(CC(=O)N(C)C)CC3O)cc1OCC2 (stereo unspecified)
< 1 | CC(C)n1ncnc1-c1cn2c(n1)-c1ccc(N3CC(N)(CO)C3)cc1OCC2
< 1 | CC(C)n1ncnc1-c1cn2c(n1)-c1cc(C(=O)N3CCS(=O)(=O)CC3)ccc1OCC2
< 1 | Cc1nc(-c2cn3c(n2)-c2ccc(C(F)F)cc2OCC3)n(C(C)C)n1
< 1 | Cc1nc(-c2cn3c(n2)-c2ccccc2OCC3)n(C(C)C)n1
0.058 | Fc1ccc(-n2ncnc2-n2cc3c(n2)-c2ccc(Br)cc2OCC3)c(F)c1
< 1 | CC(C)N(CCO)C(=O)c1cn2c(n1)-c1ccc(C3CCN(CC(=O)N(C)C)CC3)cc1OCC2
< 1 | CC(C)n1ncnc1-c1cn2c(n1)-c1cnc(N3C[C@@H](O)C[C@H]3C(N)=O)cc1OCC2
< 1 | CC(C)n1ncnc1-c1cn2c(n1)-c1ccc(OC(C(N)=O)C3CC3)cc1OCC2 (stereo unspecified)
< 1 | CC(C)n1ncnc1-c1cn2c(n1)-c1cc(Br)ccc1OCC2
< 1 | CC(C)n1ncnc1-n1cc2c(n1)-c1ccc(-c3cnn(CCO)c3)cc1OCC2
< 1 | O=C1CCCN1CCNc1cc2c(cn1)-c1nc(-c3ncnn3-c3ccc(F)cc3F)cn1CCO2
< 1 | Cc1nc(-c2cn3c(n2)-c2cnc(N4CCC[C@H]4C(N)=O)cc2OCC3)n(CC(F)(F)F)n1
< 1 | Clc1ccccc1-n1ncnc1-c1cn2c(n1)-c1cc(-c3cncnc3)ccc1OCC2
< 1 | NC(=O)[C@@H]1CCN1c1ccc2c(c1)OCCn1cc(-c3ncnn3CC(F)(F)F)nc1-2
< 1 | CC(C)n1ncnc1-c1cn2c(n1)-c1ccc(N3CCN(C)CC3)nc1OCC2
< 1 | Nc1ccc2c(c1)OCCn1cc(-c3ncnn3CC(F)(F)F)nc1-2
< 1 | CC(C)n1nc(CO)nc1-c1cn2c(n1)-c1ccccc1OCC2

IC50 [µM] | Structure (SMILES)
< 1 | Cc1nc(-c2cn3c(n2)-c2ccc(-c4cn(CC(C)(C)O)cn4)cc2OCC3)n(C(C)C)n1
< 1 | CN(C)c1cc2c(cn1)-c1nc(-c3ncnn3-c3ccccc3Cl)cn1CCO2
< 1 | CC(C)n1ncnc1-c1cn2c(n1)-c1ccc([C@H](C)C(N)=O)cc1OCC2
< 1 | Cc1nc(-c2cn3c(n2)-c2ccc(C4CC4)cc2OCC3)n(C(C)CO)n1 (stereo unspecified)
< 1 | OCCN1CC(c2ccc3c(c2)OCCc2cn(-c4ncnn4-c4ccc(F)cc4F)nc2-3)C1
< 1 | CC(C)n1ncnc1-c1cc2n(n1)-c1cc(C(=O)Nc3ccon3)ccc1OCC2
< 1 | CC(C)n1ncnc1-c1cn2c(n1)-c1cnc(N3C[C@H](F)C[C@H]3C(N)=O)cc1OCC2
< 1 | CC(C)n1ncnc1-n1cc2c(n1)-c1cc(C(=O)Nc3cnn(CCO)c3)ccc1OCC2
< 1 | CC(C)n1ncnc1-c1cn2c(n1)-c1ccc(CCS(N)(=O)=O)cc1OCC2
< 1 | Cc1nc(-c2cn3c(n2)-c2ccc(-c4cnn(C5CN(CCO)C5)c4)cc2OCC3)n(C(C)C)n1
< 1 | CC(C)n1ncnc1-c1cn2c(n1)-c1ccc(N3CCC[C@H]3C(N)=O)cc1OCC2
< 1 | CS(=O)(=O)CCN1CCC(c2ccc3c(c2)-c2nn(-c4ncnn4-c4ccc(F)cc4F)cc2CCO3)CC1
< 1 | CC(Sc1ccc2c(c1)OCCn1cc(-c3ncnn3C(C)C)nc1-2)C(N)=O (stereo unspecified)
< 1 | CC(C)n1ncnc1-c1cc2n(n1)-c1cc(C(=O)NCC(C)(C)O)ccc1OCC2
< 1 | N#Cc1ccc2c(c1)-c1nc(-c3nc(N)nn3CC(F)(F)F)cn1CCO2
< 1 | CC(C)n1ncnc1-c1cn2c(n1)-c1ccc(-c3cnn(C(C)(C)C(=O)O)c3)cc1OCC2
< 1 | O=C(c1ccc2c(c1)-c1nc(-c3ncnn3CC(F)(F)F)cn1CCO2)N1CCN(CCO)CC1
< 1 | c1cn(CCN2CCOCC2)c(-c2cn3c(n2)-c2cc(-c4cn[nH]c4)ccc2OCC3)n1
< 1 | Cc1nc(-c2cn3c(n2)-c2ccc(-c4cccnc4)cc2OCC3)n(C(C)C)n1
< 1 | C[C@H](Nc1ccc2c(c1)OCCn1cc(-c3ncnn3CC(F)(F)F)nc1-2)C(N)=O
< 1 | CC(C)n1ncnc1-n1cc2c(n1)-c1ccc(Br)cc1OCC2
< 1 | CC(C)n1ncnc1-c1cn2c(n1)-c1ccc(OCC3(N)COC3)cc1OCC2
< 1 | CC(C)n1ncnc1-c1cn2c(n1)-c1cc(-c3ccc(Cl)cc3)ccc1OCC2
< 1 | CC(C)n1ncnc1-c1cn2c(n1)-c1cnc(N3CCN(CC(N)=O)CC3)cc1OCC2

IC50 [µM] | Structure (SMILES)
< 1 | CC(C)n1nc(CN(C)C)nc1-c1cn2c(n1)-c1ccccc1OCC2
< 1 | CC(C)n1ncnc1-c1cc2n(n1)-c1cc(CN3CCNC(=O)C3)ccc1OCC2
< 1 | Cc1nc(-c2cn3c(n2)-c2cc(C#N)ccc2OCC3)n(C(C)C)n1
< 1 | CC(C)n1ncnc1-c1cn2c(n1)-c1ccc(C(=O)NC(C)(C)CO)cc1OCC2
< 1 | CC(C)NC(=O)CN1CCC(c2ccc3c(c2)OCCn2cc(-c4ncnn4C(C)C)nc2-3)CC1
< 1 | CC(C)n1ccnc1-c1cn2c(n1)-c1ccc(-c3cnn(CC(C)(C)O)c3)cc1OCC2
< 1 | CC(C)n1nc(N)nc1-c1cn2c(n1)-c1ccc(-c3cnn(CC(C)(C)O)c3)cc1OCC2
< 1 | Cc1nc(-c2ccc3c(c2)OCCn2cc(-c4ncnn4C(C)C)nc2-3)cn1CCO
< 1 | Cc1nc(-c2cn3c(n2)-c2ccc(-c4cnn(CC(C)C(=O)O)c4)cc2OCC3)n(C(C)C)n1 (stereo unspecified)
< 1 | Fc1ccc(-n2ncnc2-c2cn3c(n2)-c2cnc(NCc4ncc[nH]4)cc2OCC3)c(F)c1
< 1 | Cc1nc(-c2cn3c(n2)-c2ccc(N4CC[C@H]4C(N)=O)cc2OCC3)n(CC(F)(F)F)n1
< 1 | CNC(=O)Cn1ccnc1-c1cn2c(n1)-c1ccc(-c3cnn(CC(C)(C)O)c3)cc1OCC2
< 1 | NC(=O)C1CC1c1ccc2c(c1)OCCn1cc(-c3ncnn3CC(F)(F)F)nc1-2 (stereo unspecified)
< 1 | CC(C)n1nc(N)nc1-c1cn2c(n1)-c1ccc(C#N)cc1OCC2
< 1 | CC(C)n1nc(CO)nc1-c1cn2c(n1)-c1ccc(-c3cnn(CC(C)(C)O)c3)cc1OCC2
< 1 | CC(C)n1ncnc1-c1cn2c(n1)-c1cnc(N3CCC(C(N)=O)CC3)cc1OCC2
< 1 | CC(C)NC(=O)CN1CCN(c2cc3c(cn2)-c2nc(-c4ncnn4C(C)C)cn2CCO3)CC1
< 1 | CC(C)n1nc(N)nc1-c1cn2c(n1)-c1cc(-c3cncnc3)ccc1OCC2
< 1 | CC(C)n1ncnc1-c1cn2c(n1)-c1ccc(C3CN(CCS(=O)(=O)N(C)C)C3)cc1OCC2
< 1 | CC(C)n1ncnc1-c1cn2c(n1)-c1ccc(-c3cncn3C3CCCCO3)cc1OCC2 (stereo unspecified)
< 1 | Cc1nc(-c2ccc3c(c2)OCCn2cc(-c4ncnn4C(C)C)nc2-3)cn1CCOC1CCCCO1 (stereo unspecified)
< 1 | CC(C)n1ncnc1-c1cn2c(n1)-c1cnc(N3C4CCC3C(=O)NC4)cc1OCC2 (stereo unspecified)
< 1 | Nc1nc(-c2cn3c(n2)-c2cc(-c4cncnc4)ccc2OCC3)n(-c2ccccc2Cl)n1
< 1 | CC(C)n1ncnc1-c1cn2c(n1)-c1ccc(C3CCN(CC(N)=O)CC3)cc1OCC2

IC50 [µM] | Structure (SMILES)
< 1 | Cc1nc(-c2cn3c(n2)-c2ccc(-c4cn(CCO)cn4)cc2OCC3)n(C(C)C)n1
< 1 | NC(=O)[C@@H]1CCCN1c1cc2c(cn1)-c1nc(-c3ncnn3C3CCCCC3)cn1CCO2
< 1 | Cc1nc(-c2cn3c(n2)-c2cnc(N4C[C@H](F)C[C@H]4C(N)=O)cc2OCC3)n(C(C)C)n1
< 1 | CC(C)n1ncnc1-c1cc2n(n1)-c1cc(C3CN(Cc4ccncc4)C3)ccc1OCC2
< 1 | CC(C)n1ncnc1-c1cc2n(n1)-c1cc(C3CN(C(=O)CO)C3)ccc1OCC2
< 1 | NC(=O)[C@@H]1CCCN1c1cc2c(cn1)-c1nc(-c3ncnn3CC(F)(F)F)cn1CCO2
< 1 | CCc1ccc2c(c1)OCCn1cc(-c3nc(C)nn3C(C)C)nc1-2
< 1 | O=C(CO)N1CCC(c2ccc3c(c2)-n2nc(-c4ncnn4CC(F)(F)F)cc2CCO3)CC1
< 1 | CC(C)n1ncnc1-c1cn2c(n1)-c1ccc(-c3cn(CC(C)(C)O)cn3)cc1OCC2
< 1 | CC(C)n1ncnc1-c1cn2c(n1)-c1cnc(OC(C)(C)C(N)=O)cc1OCC2
< 1 | O=C(c1ccc2c(c1)-c1nc(-c3ncnn3-c3ccc(F)cc3F)cn1CCO2)N1CCN(CCO)CC1
< 1 | CC(C)(CO)NC(=O)c1ccc2c(c1)-c1nc(-c3ncnn3C3CCS(=O)(=O)C3)cn1CCO2 (stereo unspecified)
< 1 | CC(C)n1ncnc1-c1cn2c(n1)-c1ccc(CN(C)C(N)=O)cc1OCC2
< 1 | CCc1ccccc1-c1cn2c(n1)-c1ccc(C(=O)OC)cc1OCC2
< 1 | CC(C)n1ncnc1-c1cn2c(n1)-c1ccc(-c3cn(C)c(CC(C)(C)O)n3)cc1OCC2
< 1 | COC(=O)C(C)(C)n1cc(-c2ccc3c(c2)OCCn2cc(-c4nc(C)nn4C(C)C)nc2-3)cn1
< 1 | CC(C)n1nccc1-c1cn2c(n1)CCOc1cc(C(N)=O)cnc1-2
< 1 | FC(F)(F)Cn1ncnc1-c1cc2n(n1)-c1cc(C3CCNCC3)ccc1OCC2
< 1 | CC(C)n1ncnc1-c1cn2c(n1)-c1ccc(C3CN(C(C)(C)C(N)=O)C3)cc1OCC2
< 1 | COc1cc2c(cn1)-c1nc(-c3ncnn3C(C)C)cn1CCO2
< 1 | COC(=O)c1ccc2c(c1)OCCn1cc(-c3ccccc3C(C)C)nc1-2
< 1 | Cc1nc(-c2cn3c(n2)-c2cnc(NCC(N)=O)cc2OCC3)n(CC(F)(F)F)n1
< 1 | CC(C)(CO)NC(=O)c1ccc2c(c1)-c1nc(-c3ncnn3-c3ccc(F)cc3F)cn1CCO2
< 1 | O=C(Nc1cn[nH]c1)c1ccc2c(c1)-n1nc(-c3ncnn3CC(F)(F)F)cc1CCO2
